Experimental data reported in US4332802A, “11-Oxo-11H-pyrido[2,1-b]quinazoline-2-carboxylic acid and salts thereof, antiallergic compositions containing it and methods of suppressing allergic reactions with it” (Boehringer Ingelheim KG, priority 1975, dated 1982).
Like-named read-outs stand apart in the source and are kept apart here.

Assays:
[1] = test system: anaphylactoid dextran reaction in the rat paw; test: Dextran edema test (anaphylactoid dextran reaction, paw swelling); format: in vivo; details: for ED35: 0.5 h, rat, graphic extrapolation; for % Inhibition of swelling: rat paw, dextran, dose of 100 mgm/kg (p.o.)
From the text: The antiallergic activity of the compounds of the present invention was ascertained and compared to that of structurally related known compounds by the anaphylactic dextran reaction method, where
Dextran induces in the rat a de-granulation of mast cells and thus the release of mediator substances such as histamine and serotonin, with consequent edema formation. The reaction manifests itself in a manner similar to anaphylaxis [see Morrison et al., J.exp.Med. 103, 399 (1956)].
Fasted male laboratory rats (Chbb:Thom.SPF) having a body weight of 120-180 gm were used as the test animals; they were initially kept in wire cages, and after provocation of the reaction on chaff. The allergic reaction was released by subplantar injection into the right hind paw of 100 μgm of dextran (mol. wt. 60,000) in 0.1 ml of physiological sodium chloride solution. The degree of inflammatory swelling was determined by dorso-plantar measurement of the thickness of the paw [see Doepfner et al., Int. Arch. Allergy 12, 89 (1958)] in 1/100 mm; swelling was defined as the difference between the paw thickness 30 minutes after the dextran injection and the paw thickness before the dextran injection. For the dextran injection and the paw thickness measurements the animal was placed under light general anesthesia with ether (etherrausch).
The test compound was administered shortly before release of the allergic reaction in sodium chloride solution i.v. (0.5 ml/100 gm body weight), or 10 minutes before in 1% tylose 2000 p.o. (1 ml/100 gm body weight). Control animals received only the vehicle.
From the raw data thus obtained the percentage of swelling inhibition was calculated from the average paw swelling in the treated animals (T) and in the control animals (K) in accordance with the formula [formula] By graphic extrapolation the dose of test compound was determined which produced a 35% reduction of the swelling (ED35). For graphic representation of percentage inhibition values the standard error (sx --) was determined according to Fenner, Naturwissenschaften 19, 310 (1931).
For the anaphylactoid dextran reaction in the rat paw the following values were obtained at a dose of 100 mgm/kg: […]

[2] = Absorption: quotient ED35 p.o./ED35 i.v. from the dextran edema test; details: in vivo; rat; the smaller the quotient, the better the absorption
From the text: For the efficacy of a pharmaceutical which is to be administered perorally, the absorption is of particular advantage. Conclusions regarding the absorption can be drawn from a comparison of the ED35 --values p.o. and i.v.; the smaller the quotient ED35 p.o./ED35 i.v., the better the absorption.

[3] = iv, i.v., shortly before dextran, sodium chloride solution, read-out: ED35 i.v. (dose producing 35% reduction of the swelling)
[4] = po, p.o., 10 minutes before dextran, 1% tylose, read-out: ED35 p.o. (dose producing 35% reduction of the swelling)

Compound	ED35 [1, 3]	ED35 [1, 4]	ED35 p.o./i.v. ratio (absorption) [2]	% Inhibition of swelling [1]
O=C(O)c1ccc2nc3ccccn3c(=O)c2c1 [A, 11-Oxo-11H-pyrido[2,1-b]quinazoline-2-carboxylic acid]	2.1 mg/kg	4 mg/kg	1.9	–
O=C(O)c1cccc2nc3ccccn3c(=O)c12 [B, 11-Oxo-11H-pyrido[2,1-b]quinazoline-1-carboxylic acid]	–	–	–	0%
O=C(O)c1cccc2c(=O)n3ccccc3nc12 [C, 11-Oxo-11H-pyrido[2,1-b]quinazoline-4-carboxylic acid]	–	–	–	10%
O=C(O)c1ccn2c(=O)c3ccccc3nc2c1 [D, 11-Oxo-11H-pyrido[2,1-b]quinazoline-7-carboxylic acid]	–	–	–	38%
O=C(O)c1ccc2nc3ccccc3c(=O)n2c1 [E, 11-Oxo-11H-pyrido[2,1-b]-quinazoline-8-carboxylic acid]	1.1 mg/kg	4.4 mg/kg	4	–
